Assay results reported in patent publication US10857196B2, “Bicyclic peptide ligands and uses thereof” (BicycleTx Limited, priority 2017, dated 2020).
Numbered stars: 1 amine (or outer) side, 2 acyl side, 3 side chain; on linkers, the order of the positions; unused ones are H or OH. Bridge positions count the residues as written; N and C are the ends. Square brackets hold non-standard residues; d marks the D form. Peptide text beside a SMILES is read from it. X8 = O=C(C[*:1])NCCn1c(=O)n(CCNC(=O)C[*:2])c(=O)n(CCNC(=O)C[*:3])c1=O; X1 = O=C(CC[*:1])N1CC23CN(C(=O)CC[*:2])CC2(C1)CN(C(=O)CC[*:3])C3; X9 = O=C(C[*:1])N1CCOCCN(C(=O)C[*:2])CCOCCN(C(=O)C[*:3])CCOCC1; X3 = O=C(C[*:1])N1CC23CN(C(=O)C[*:2])CC2(C1)CN(C(=O)C[*:3])C3; X2 = O=C(CC[*:1])N1CCN(C(=O)CC[*:2])CCN(C(=O)CC[*:3])CC1; X5 = O=C(C[*:1])N1CCN(C(=O)C[*:2])CCN(C(=O)C[*:3])CC1; 1Nal = N[C@@H](Cc1cccc2ccccc12)C(=O)O; Tle = CC(C)(C)[C@H](N)C(=O)O

The compounds below were run against MT1-MMP hemopexin domain (Homo sapiens, UniProt P50281) (assay: Direct binding fluorescence polarization (anisotropy) assay).
Method: Direct Binding Fluorescence Polarization or Anisotropy Assays are performed by titrating a constant concentration of fluorescent tracer (here, the fluoresceinated bicyclic peptide to be studied) with its binding partner (here, the MT1-MMP hemopexin domain). As the concentration of binding partner increases during the titration, the polarization signal changes in proportion to the fraction of bound and unbound material. This allows determination of […] (Kd) quantitatively. Assay data can be fit using standard ligand binding equations.
Typically, concentrations of the tracer are ideally well below the Kd of the tracer:titrant pair, and concentrations chosen are usually at ˜1 nM or less. The titrant (binding partner) concentration is varied from 0.1 nM up to typically 5 μM. The range is chosen such that the maximum change in fluorescent polarization can be observed. Buffers employed are phosphate buffered saline in the presence of 0.01% Tween. Experiments were run in black 384 well low-bind/low volume plates (Corning 3820), and the fluorescent polarization signal was measured using a BMG Pherastar FS plate reader. Fluorescent tracers referred to in the text are bicyclic peptides that have been fluoresceinated using 5,6-carboxyfluorescein. Fluoresceination may be performed on the N-terminal amino group of the peptide, which is separated from the bicycle core sequence by a sarcosine spacer (usually Sar5). This can be done during Fmoc solid phase synthesis or post-synthetically (after cyclization with the molecular scaffold reagent and purification) if the N-terminal amino group is unique to the peptide. Fluoresceination can also be performed on the C-terminus, usually on a Lysine introduced as the first C-terminal residue, which is then separated from the bicycle core sequence by a sarcosine spacer (usually Sar6). Thus, N-terminal tracers can have a molecular format described as Fluo-Gly-Sar5-A(BicycleCoreSequence), and (BicycleCoreSequence)-A-Sar6-K(Fluo) for a C-terminally fluoresceinated construct.
Fluorescent tracers used in the Examples are A-(17-69)-A-Sar6-K(Fluo), A-(17-69-07)-A-Sar6-K(Fluo), and A-(17-69-12)-A-Sar6-K(Fluo). Due to the acidic nature of the 17-69 fluorescent peptides, they were typically prepared as concentrated DMSO stocks, from which dilution were prepared in 100 mM Tris pH 8 buffer.
Results from the direct binding fluorescence polarization (anisotropy) assays is depicted in Table 3, below. A K, value designated “A” denotes a Ki of ≤50 nM; a Ki value designated “B” denotes a Ki of >50 nM and ≤100 nM; a Ki value designated “C” denotes a Ki of >100 nM and ≤1,000 nM; and a Ki value designated “D” denotes a Ki of >1,000 nM.

Row | Ki [nM] | SMILES
1 | ≤ 50 | C[C@H](N)C(=O)N[C@H]1CSCC(=O)N2CCN3CCN(CC2)C(=O)CSC[C@H](NC(=O)[C@@H](C)NC(=O)[C@H](Cc2cccc4ccccc24)NC(=O)[C@H](CCC(=O)O)NC(=O)[C@H](CC(N)=O)NC(=O)[C@@H](C)NC1=O)C(=O)N[C@@H](CCC(=O)O)C(=O)N[C@@H](CC(=O)O)C(=O)N[C@@H](Cc1ccccc1)C(=O)N[C@@H](Cc1ccc(O)cc1)C(=O)N[C@@H](CC(=O)O)C(=O)N[C@@H](C(C)(C)C)C(=O)N[C@H](C(N)=O)CSCC3=O [Compound I-54] (H-AC[dA]NE[1Nal][dA]CEDFYD[Tle]C-NH2; linker 2-8-15 via X5)
2 | 50 to 100 | C[C@H](N)C(=O)N[C@H]1CSCCC(=O)N2CCN3CCN(CC2)C(=O)CCSC[C@H](NC(=O)[C@@H](C)NC(=O)[C@H](Cc2cccc4ccccc24)NC(=O)[C@H](CCC(=O)O)NC(=O)[C@H](CC(N)=O)NC(=O)[C@@H](C)NC1=O)C(=O)N[C@@H](CCC(=O)O)C(=O)N[C@@H](CC(=O)O)C(=O)N[C@@H](Cc1ccccc1)C(=O)N[C@@H](Cc1ccc(O)cc1)C(=O)N[C@@H](CC(=O)O)C(=O)N[C@@H](C(C)(C)C)C(=O)N[C@H](C(N)=O)CSCCC3=O [Compound I-55] (H-AC[dA]NE[1Nal][dA]CEDFYD[Tle]C-NH2; linker 2-8-15 via X2)
3 | 100 to 1000 | C[C@H](N)C(=O)N[C@H]1CSCCC(=O)N2CC34CN5CC3(C2)CN(C4)C(=O)CCSC[C@H](NC(=O)[C@@H](C)NC(=O)[C@H](Cc2cccc3ccccc23)NC(=O)[C@H](CCC(=O)O)NC(=O)[C@H](CC(N)=O)NC(=O)[C@@H](C)NC1=O)C(=O)N[C@@H](CCC(=O)O)C(=O)N[C@@H](CC(=O)O)C(=O)N[C@@H](Cc1ccccc1)C(=O)N[C@@H](Cc1ccc(O)cc1)C(=O)N[C@@H](CC(=O)O)C(=O)N[C@@H](C(C)(C)C)C(=O)N[C@H](C(N)=O)CSCCC5=O [Compound I-56] (H-AC[dA]NE[1Nal][dA]CEDFYD[Tle]C-NH2; linker 2-8-15 via X1)
4 | 100 to 1000 | C[C@H](N)C(=O)N[C@H]1CSCC(=O)N2CC34CN5CC3(C2)CN(C4)C(=O)CSC[C@H](NC(=O)[C@@H](C)NC(=O)[C@H](Cc2cccc3ccccc23)NC(=O)[C@H](CCC(=O)O)NC(=O)[C@H](CC(N)=O)NC(=O)[C@@H](C)NC1=O)C(=O)N[C@@H](CCC(=O)O)C(=O)N[C@@H](CC(=O)O)C(=O)N[C@@H](Cc1ccccc1)C(=O)N[C@@H](Cc1ccc(O)cc1)C(=O)N[C@@H](CC(=O)O)C(=O)N[C@@H](C(C)(C)C)C(=O)N[C@H](C(N)=O)CSCC5=O [Compound I-57] (H-AC[dA]NE[1Nal][dA]CEDFYD[Tle]C-NH2; linker 2-8-15 via X3)

More lines, now with the values behind:

Row | SMILES | Ki [nM]
5 | C[C@H](N)C(=O)N[C@H]1CSCC(=O)NCCn2c(=O)n3c(=O)n(c2=O)CCNC(=O)CSC[C@H](NC(=O)[C@@H](C)NC(=O)[C@H](Cc2cccc4ccccc24)NC(=O)[C@H](CCC(=O)O)NC(=O)[C@H](CC(N)=O)NC(=O)[C@@H](C)NC1=O)C(=O)N[C@@H](CCC(=O)O)C(=O)N[C@@H](CC(=O)O)C(=O)N[C@@H](Cc1ccccc1)C(=O)N[C@@H](Cc1ccc(O)cc1)C(=O)N[C@@H](CC(=O)O)C(=O)N[C@@H](C(C)(C)C)C(=O)N[C@H](C(N)=O)CSCC(=O)NCC3 [Compound I-52] (H-AC[dA]NE[1Nal][dA]CEDFYD[Tle]C-NH2; linker 2-8-15 via X8) | 100 to 1000
6 | C[C@H](N)C(=O)N[C@H]1CSCC(=O)N2CCOCCN3CCOCCN(CCOCC2)C(=O)CSC[C@H](NC(=O)[C@@H](C)NC(=O)[C@H](Cc2cccc4ccccc24)NC(=O)[C@H](CCC(=O)O)NC(=O)[C@H](CC(N)=O)NC(=O)[C@@H](C)NC1=O)C(=O)N[C@@H](CCC(=O)O)C(=O)N[C@@H](CC(=O)O)C(=O)N[C@@H](Cc1ccccc1)C(=O)N[C@@H](Cc1ccc(O)cc1)C(=O)N[C@@H](CC(=O)O)C(=O)N[C@@H](C(C)(C)C)C(=O)N[C@H](C(N)=O)CSCC3=O [Compound I-58] (H-AC[dA]NE[1Nal][dA]CEDFYD[Tle]C-NH2; linker 2-8-15 via X9) | 50 to 100
